The values below come from patent US7320993B1, “Aryl-substituted pyridylalkane, alkene, and alkine carboxamides useful as cytostatic useful as cytostatic and immuosuppressive agents” (Astellas Deutschland GmbH, priority 1997, dated 2008).

Structures are written as SMILES. Read-outs that look alike come from different tables or passages of the source.

For one data set, the system named is A549 cells. The experiment in a line: Growth inhibition of A549 human lung carcinoma cells (sulforhodamin-B method). The data set is classed as cell-based. The method, then: (§1) The tumor growth inhibiting activity of the substances was determined on human tumor cells in standardized in vitro test systems. In the screening tests, the substances gave IC50-values in a concentration range of 0.1 nM to 10 μM.
(§2) A549 cells derived from a human lung carcinoma plated at a density of 20,000 cells/ml in 12-well plastic dishes. Cultivation occurred in Richters IMEM-ZO nutrient medium with 5% foetal calf serum (FCS) in a tissue culture incubator with a gas mixture of 5% CO2 and 95% air at a temperature of 37° C. One day after plating, the culture medium was aspirated from the cells and replaced by fresh medium which contained the respective concentrations of the test substances. For the individual concentrations and the controls without test substances, three-fold batches were done for each. Three days after the beginning of treatment, the medium was again renewed with the test compounds. After four days of substance incubation, the test was ended and the protein amount in the individual wells was determined with the sulforhodamin-B-method (according to P. Skehan et al.: New Colorimetric Cytotoxicity Assay for Anticancer-Drug Screening. J. Natl. Cancer Inst. 82: 1107-1112, 1990). The IC50-values (defined as that concentration in which the cell growth was inhibited by 50%) was taken from the dose-response curves and given as a comparative measurement for the activity of the test compounds.

In a further data set the test system is HepG2 cells. The experiment in a line: Growth inhibition of HepG2 human liver carcinoma cells (sulforhodamin-B method). The data set is classed as cell-based. The method, then: as §1
as §2, with “HepG2” for “A549”, “liver” for “lung”, “[…]” for “20,000”, “six” for “four”

The subject of data set [1] is freshly isolated lymphocytes. The experiment in a line: Immunosuppressing activity on freshly isolated spleen lymphocytes (flow cytometry, vital cells). The format is cell-based. The settings on record: Lymphocyte, 48 h; Swiss mouse spleen lymphocytes, 2 days incubation, percentage of vital cells by flow-through cytometer. From the text:
Many anti-tumor agents have not only a cytotoxic effect on tumor cells, but also on the blood cell system. This leads to a weakening of the immune defense, which can, in turn, be specifically employed to suppress the rejection reaction after an organ transplantation for example. Also use of the main compounds, optionally in combination with other immunological diseases (for example, psoriasis or autoimmune diseases) seems likely. In order to test the possibility for a therapeutic use in illnesses of this type, the substance activity was tested on freshly isolated lymphocytes as follows:
The spleen of a Swiss mouse served as a lymphocyte source. The lymphocyte population was isolated from the spleen cell […] suspension over a ficoll gradient and taken up in IMEM-ZO culture medium with 0.1% dextran 70,000 and 2% foetal calf serum. The cells were plated at a density of ca. 500,000 cells/well/ml in a 12-well plate, 1 ml doubly concentrated test substance solution was pipetted per well and this was subsequently incubated in a tissue culture incubator at 37° C. and 5% CO2. After 2 days, a 1 ml-aliquot with 5 μl of the fluorescent dye solutions propidium iodide (8 mg/ml) and 3,3′-dihexyloxacarbocyanin iodide (40 μg/ml) each was added per well, and incubated for 3 minutes at room temperature. Subsequently, 10,000 cells per each sample were measured on a flow-through cytometer and the percentage amount of vital cells in the population was determined. By means of the dose-response curves, IC50-values were calculated which were also employed in the following Tables for the characterization of the individual substances: […]

A further data set concerns THP-1 cells. The experiment in a line: Growth inhibition of THP-1 human monocytic leukemia cells (WST-1 reagent). The data set is classed as cell-based. As to the method: as §1
THP-1 cells derived from a human monocytic leukemia plated at a density of 200,000 cells/ml in 96-well plastic dishes. Cultivation occurred in RPMI 1640 nutrient medium with 10% foetal calf serum (FCS) in a tissue culture incubator with a gas mixture of 5% CO2 and 95% air at a temperature of 37° C. For the individual concentrations and the controls without test substances as well as for the background with nutrient medium but without cells, three-fold batches were done for each. After four days of substance incubation 20 μl WST-1 reagent (Boehringer Mannheim) was respectfully pipetted in each individual well. After 30 to 60 minute incubation in the tissue culture incubator at 37° C. and 5% CO2, the light extinction was measured in an ELISA reader at 450 nm wave length. The backgrounds were each subtracted from the typical measured valves. The IC50-values (defined as that concentration in which the cell growth was inhibited by 50%) was taken from the dose-response curves and given as a comparative measurement for the activity of the test compounds.
For orientation: Tetrazolium assays rely on reduction of a dye to a coloured formazan, in cell work by metabolically active cells.

The mark [2] stands for this setting: 96 h, A549 cells, four days of substance incubation, protein amount by sulforhodamin-B, read-out: IC50-value.
[3] abbreviates: 144 h, HepG2 cells, six days of substance incubation, protein amount by sulforhodamin-B, read-out: IC50-value.

As for `O=C(C=Cc1cccnc1)NCCCCNC(=O)[C@@H]1C[C@H]1c1ccccc1` (relative stereo) [Substance 250, N-[4-(trans-2-phenyl-cyclopropyl-carbonylamino)-butyl]-3-pyridin-3-yl-acrylamide], the melting point (as a rule, the temperature, or range, at which the solid turns liquid) fell in the range of 194 to 196 °C.

In the case of `O=C(C=Cc1cccnc1)NCCCCCCCc1ccccc1` [Substance 3, N-(7-phenyl-heptyl)-3-pyridin-3-yl-acrylamide], the melting point was 61 to 63 °C. The 50% inhibitory concentration (IC50) (in general, the point on the concentration scale where inhibition reaches its midpoint) in the data set with A549 cells (setting [2]) was 8000 nM.

On to `O=C(C=Cc1cccnc1)NCCCCC(O)(c1ccccc1)c1ccccc1` [Substance 27, N-(5-hydroxy-5,5-diphenyl-pentyl)-3-pyridin-3-yl-acrylamide], for which the melting point was in the range of 157 to 159 °C. In the data set with HepG2 cells (setting [3]), the IC50 was found to be 40 nM.

As for `O=C(C=Cc1cccnc1)NCCCCCC(O)(c1ccccc1)c1ccccc1` [Substance 31, N-(6-hydroxy-6,6-diphenyl-hexyl)-3-pyridin-3-yl-acrylamide], the melting point fell in the range of 145 to 147 °C.

`O=C(C=Cc1cccnc1)NCCCCCCCC(O)(c1ccccc1)c1ccccc1` [Substance 41, N-(8-hydroxy-8,8-diphenyloctyl)-3-pyridin-3-yl-acrylamide] gave a melting point of 139 to 140 °C.

Molecule `O=C(C=Cc1cccnc1)NCCCCn1cnc(-c2ccccc2)c1-c1ccccc1` [Substance 63, N-[4-(4,5-diphenyl-imidazol-1-yl)-butyl]-3-pyridin-3-yl-acrylamide] showed a melting point of 183 °C. In addition, the IC50 in data set [1] turned out to be 0.3 nM. Besides, the IC50 in the data set on HepG2 cells (setting [3]) was 8 nM.

For `O=C(C=Cc1cccnc1)NCCCCC=C(c1ccccc1)c1ccccc1` [Substance 120, N-(6,6-diphenyl-hex-5-enyl)-3-pyridin-3-yl-acrylamide], the melting point was in the range of 120 to 121 °C. Also, in data set [1], the IC50 turned out to be 0.5 nM. Further, the IC50 with A549 cells (A549, lung carcinoma, methods of point 1, read-out: IC50-values) is 2 nM. Besides, the IC50 with HepG2 cells (HepG2, hepatocelluar carcinoma, methods of point 1, read-out: IC50-values) stood at 0.5 nM. In the data set on THP-1 cells (96 h, THP-1 cells, four days of substance incubation, WST-1, extinction at 450 nm, read-out: IC50-value), the IC50 amounted to 0.2 nM. Besides, the IC50 in the data set with THP-1 cells (THP-1, monocytic leukemia, methods of point 1, read-out: IC50-values) came out at 0.2 nM.

`O=C(C=Cc1cccnc1)NCCCCNC(c1ccccc1)c1ccccc1` [Substance 187, N-[4-(benzhydryl-amino)-butyl]-3-pyridin-3-yl-acrylamide] yielded a melting point of 101 to 102 °C. For the same molecule, in the data set on A549 cells (setting [2]), the IC50 was 400 nM. In the data set on HepG2 cells (setting [3]), the IC50 came out at 200 nM.

As for `CN(CCCCNC(=O)C=Cc1cccnc1)CCN(C)C(c1ccccc1)c1ccccc1` [Substance 193, N-(4-{[2-(benzhydryl-methyl-amino)-ethyl]-methyl-amino}-butyl)-3-pyridin-3-yl-acrylamide], the melting point was in the range of 89 to 91 °C. The half-maximal inhibitory concentration (IC50) in the data set on A549 cells (setting [2]) came to 1000 nM.

In turn, `O=C(C=Cc1cccnc1)NCCCCN1CCc2ccccc2C(c2ccccc2)C1` (centres unmarked) [Substance 207, N-[4-(1-phenyl-1,2,4,5-tetrahydrobenzo[d]azepin-3-yl)-butyl]-3-pyridin-3-yl-acrylamide] registered a melting point of 92 to 94 °C.

For the molecule `O=C(C=Cc1cccnc1)NCCCCNC(=O)C(c1ccccc1)c1ccccc1` [Substance 247, N-(4-diphenylacetylamino-butyl)-3-pyridin-3-yl-acrylamide], the melting point fell in the range of 171 to 172 °C. Moreover, in data set [1], the IC50 came out at 80 nM. For the same molecule, the IC50 in the data set on A549 cells (setting [2]) was determined as 2000 nM.

In the case of `O=C(C=Cc1cccnc1)NCCCCNC(=O)N(c1ccccc1)c1ccccc1` [Substance 268, N-[4-(3,3-diphenyl-ureido)-butyl]-3-pyridin-3-yl-acrylamide], the melting point lay in the range of 123 to 125 °C.

`O=C(C=Cc1cccnc1)NCCCCCCNC(=O)N(c1ccccc1)c1ccccc1` [Substance 270, N-[6-(3,3-diphenyl-ureido)-hexyl]-3-pyridin-3-yl-acrylamide]: the melting point was in the range of 105 to 107 °C.

In turn, `O=C(C=Cc1cccnc1)NCCCCCCNC(=O)N1c2ccccc2CCc2ccccc21` [Substance 295, N-[6-(10,11-dihydro-dibenzo[b,f]azepin-5-yl-carbonylamino)-hexyl]-3-pyridin-3-yl-acrylamide] registered a melting point of 97 to 99 °C.

As for `Cc1ccc(S(=O)(=O)NCCCCCCNC(=O)C=Cc2cccnc2)cc1` [Substance 310, 3-Pyridin-3-yl-N-[6-(tosylamino)-hexyl]-acrylamide], the melting point lay within 91 to 93 °C.
